According to patent US11999728B2, “Estrogen receptor modulators” (Recurium IP Holdings, LLC, priority 2020, dated 2024):

Test system: MCF7
Assay: Breast Cancer Cell Proliferation Assay (MCF-7), Cell Titer-Glo
Format: cell-based
Settings: Homo sapiens, MCF7 cells, 5 days of compound exposure
Description: Breast Cancer Cell Proliferation Assay (MCF-7)
MCF7 was expanded and maintained in the medium (Phenol red free DMEM/F12 (Hyclone SH30272.01) NEAA (Gibco11140-050) Na-pyruvate (Gibco 11360-070) and Re-stripped Charcoal stripped FBS (Gemini 100-119)). The cells were adjusted to a concentration of 3,000 cells per mL in the above media, and the cells were incubated (37° C., 5% CO2). The following day a 10-point, serial dilution of compounds was added to the cells at a final concentration ranging from 10-0.000005 μM for test compounds (17β-estradiol was used as a control). Additional cells were plated in 30 wells to serve as the day 1 (pretreatment) comparison. After 5 days of compound exposure, Cell Titer-Glo reagent was added to the cells and the relative luminescence units (RLUs) of each well was determined. Cell Titer-Glo was also added to 32 μL of medium without cells to obtain a background value. The plates were allowed to incubate at room temperature for 10 minutes to stabilize luminescent signal and the luminescence signal was recorded with EnSpire. The relative increase in cell number of each sample is determined as follows: (RLU sample-RLU background/RLU estrogen only treated cells-RLU background)×100=% inhibition.

`COc1cc(NC2CN(CCCF)C2)cnc1[C@@H]1c2[nH]c3ccccc3c2C[C@@H](C)N1C12CC(C1)C2` [Compound 94, 6-((1S,3R)-2-(bicyclo[1.1.1]pentan-1-yl)-3-methyl-2,3,4,9-tetrahydro-1H-pyrido[3,4-b]indol-1-yl)-N-(1-(3-fluoropropyl)azetidin-3-yl)-5-methoxypyridin-3-amine] was tested, and the IC50 (MCF7, 120 h) was at least 250 nM.

`CCCN1CC[C@H](Nc2cnc([C@@H]3c4[nH]c5ccccc5c4C[C@@H](C)N3C34CC(C3)C4)cn2)C1` [Compound 54, 5-((1S,3R)-2-(bicyclo[1.1.1]pentan-1-yl)-3-methyl-2,3,4,9-tetrahydro-1H-pyrido[3,4-b]indol-1-yl)-N—((S)-1-propylpyrrolidin-3-yl)pyrazin-2-amine] was tested, and the IC50 (MCF7, 120 h) was at most 25 nM.

Work on `CCCCN1C[C@@H](F)[C@H](Nc2ccc([C@@H]3c4[nH]c5ccccc5c4C[C@@H](C)N3C34CC(C3)C4)cc2)C1` [Compound 84, (3R,4R)—N-(4-((1R,3R)-2-(bicyclo[1.1.1]pentan-1-yl)-3-methyl-2,3,4,9-tetrahydro-1H-pyrido[3,4-b]indol-1-yl)phenyl)-1-butyl-4-fluoropyrrolidin-3-amine] yielded an IC50 (MCF7, 120 h) of at most 25 nM.

`C[C@@H]1Cc2c([nH]c3ccccc23)[C@@H](c2ccc(N[C@H]3CCN(CCCF)C3)nc2)N1C12CC(C1)C2` [Compound 20, 5-((1R,3R)-2-(bicyclo[1.1.1]pentan-1-yl)-3-methyl-2,3,4,9-tetrahydro-1H-pyrido[3,4-b]indol-1-yl)-N—((S)-1-(3-fluoropropyl)pyrrolidin-3-yl)pyridin-2-amine] showed an IC50 (MCF7, 120 h) of at most 25 nM.

Compound `C[C@@H]1Cc2c([nH]c3ccccc23)[C@@H](c2ncc(NC3CN(CCCF)C3)cc2F)N1C12CC(C1)C2` [Compound 13, 6-((1S,3R)-2-(bicyclo[1.1.1]pentan-1-yl)-3-methyl-2,3,4,9-tetrahydro-1H-pyrido[3,4-b]indol-1-yl)-5-fluoro-N-(1-(3-fluoropropyl)azetidin-3-yl)pyridin-3-amine] has an IC50 (MCF7, 120 h) of at most 25 nM.

`C[C@@H]1Cc2c([nH]c3ccccc23)[C@@H](c2ccc(NC3CN(CCC#N)C3)cn2)N1C12CC(C1)C2` [Compound 4, 3-(3-((6-((1S,3R)-2-(bicyclo[1.1.1]pentan-1-yl)-3-methyl-2,3,4,9-tetrahydro-1H-pyrido[3,4-b]indol-1-yl)pyridin-3-yl)amino)azetidin-1-yl)propanenitrile] showed an IC50 (120 h) of 25 to 250 nM.

`CCCN1C[C@@H](F)[C@@H](Nc2ccc([C@@H]3c4[nH]c5ccccc5c4C[C@@H](C)N3C34CC(C3)C4)cc2)C1` (single isomer, unassigned) [Compound 86] gave an IC50 (MCF7, 120 h) of 25 to 250 nM.

`C[C@@H]1Cc2c([nH]c3ccccc23)[C@@H](c2c(F)cc(O[C@H]3CCN(CCCF)C3)cc2F)N1C12CC(C#N)(C1)C2` (single isomer, unassigned) [Compound 36] showed an IC50 (MCF7, 120 h) of at least 250 nM.

Compound `C[C@@H]1Cc2c([nH]c3ccccc23)[C@@H](c2ccc(OCCN3CC(CF)C3)cc2)N1C12CC(C1)C2` [Compound 24, (1R,3R)-2-(bicyclo[1.1.1]pentan-1-yl)-1-(4-(2-(3-(fluoromethyl)azetidin-1-yl)ethoxy)phenyl)-3-methyl-2,3,4,9-tetrahydro-1H-pyrido[3,4-b]indole] has an IC50 (MCF7, 120 h) of at most 25 nM.

Compound `C[C@@H]1Cc2c([nH]c3ccccc23)[C@@H](c2ccc(N3CC(NCCCF)C3)cn2)N1C12CC(C1)C2` [Compound 49, 1-(6-((1S,3R)-2-(bicyclo[1.1.1]pentan-1-yl)-3-methyl-2,3,4,9-tetrahydro-1H-pyrido[3,4-b]indol-1-yl)pyridin-3-yl)-N-(3-fluoropropyl)azetidin-3-amine] has an IC50 (MCF7, 120 h) of at least 250 nM.

Work on `C=CCN1CC(Nc2ccc([C@@H]3c4[nH]c5ccccc5c4C[C@@H](C)N3C34CC(C3)C4)cc2)C1` [Compound 64, 1-allyl-N-(4-((1R,3R)-2-(bicyclo[1.1.1]pentan-1-yl)-3-methyl-2,3,4,9-tetrahydro-1H-pyrido[3,4-b]indol-1-yl)phenyl)azetidin-3-amine] yielded an IC50 (MCF7, 120 h) of at most 25 nM.

With `CCCN1C[C@@H](F)[C@H](Nc2ccc([C@@H]3c4[nH]c5ccccc5c4C[C@@H](C)N3C34CC(C3)C4)cc2)C1` [Compound 87, (3R,4R)—N-(4-((1R,3R)-2-(bicyclo[1.1.1]pentan-1-yl)-3-methyl-2,3,4,9-tetrahydro-1H-pyrido[3,4-b]indol-1-yl)phenyl)-4-fluoro-1-propylpyrrolidin-3-amine] the IC50 (MCF7, 120 h) was at most 25 nM.

In the case of `C[C@@H]1Cc2c([nH]c3ccccc23)[C@@H](c2c(F)cc(O[C@@H]3CCN(CCCF)C3)cc2F)N1C12CC(C#N)(C1)C2` (single isomer, unassigned) [Compound 37], the IC50 (MCF7, 120 h) is reported as at most 25 nM.

Work on `C[C@@H]1Cc2c([nH]c3ccccc23)[C@@H](c2ccc(O[C@@H]3CCN(CCCF)C3)nc2)N1C12CC(C1)C2` (single isomer, unassigned) [Compound 9] yielded an IC50 (MCF7, 120 h) of 25 to 250 nM.

For `C[C@H]1Cc2c([nH]c3ccccc23)[C@H](c2c(F)cc(NC3CN(CCCF)C3)cc2F)N1C12CC(CO)(C1)C2` (single isomer, unassigned) [Compound 17], the IC50 (MCF7, 120 h) was at least 250 nM.

`C[C@@H]1Cc2c([nH]c3ccccc23)[C@@H](c2ccc(NCCN3CCC(F)C3)nc2)N1C12CC(C1)C2` (stereo partly drawn) [Compound 28, 5-((1R,3R)-2-(bicyclo[1.1.1]pentan-1-yl)-3-methyl-2,3,4,9-tetrahydro-1H-pyrido[3,4-b]indol-1-yl)-N-(2-(3-fluoropyrrolidin-1-yl)ethyl)pyridin-2-amine] was tested, and the IC50 (MCF7, 120 h) was at least 250 nM.

`C[C@@H]1Cc2c([nH]c3ccccc23)[C@@H](c2ccc(N[C@@H]3CN(CCCF)C[C@@H]3F)cc2)N1C12CC(C1)C2` (single isomer, unassigned) [Compound 73] was tested, and the IC50 (MCF7, 120 h) was at most 25 nM.

Work on `C[C@@H]1Cc2c([nH]c3ccccc23)[C@@H](c2c(F)cc(NC3CN(CCF)C3)cc2F)N1C12CC(C1)C2` [Compound 56, N-(4-((1R,3R)-2-(bicyclo[1.1.1]pentan-1-yl)-3-methyl-2,3,4,9-tetrahydro-1H-pyrido[3,4-b]indol-1-yl)-3,5-difluorophenyl)-1-(2-fluoroethyl)azetidin-3-amine] yielded an IC50 (MCF7, 120 h) of at most 25 nM.

`CCCN1CC(Oc2ccc([C@@H]3c4[nH]c5ccccc5c4C[C@@H](C)N3C34CC(C3)C4)cn2)C1` [Compound 43, (1R,3R)-2-(bicyclo[1.1.1]pentan-1-yl)-3-methyl-1-(6-((1-propylazetidin-3-yl)oxy)pyridin-3-yl)-2,3,4,9-tetrahydro-1H-pyrido[3,4-b]indole] was tested, and the IC50 (MCF7, 120 h) was 25 to 250 nM.

In the case of `C[C@@H]1Cc2c([nH]c3ccccc23)[C@@H](c2c(F)cc(O[C@H]3CCN(CCCF)C3)cc2F)N1C12CC(C(N)=O)(C1)C2` (single isomer, unassigned) [Compound 35], the IC50 (MCF7, 120 h) is reported as at most 25 nM.

`C[C@@H]1Cc2c([nH]c3ccccc23)[C@@H](c2ccc(N[C@H]3CCN(CCCF)C3)cn2)N1C12CC(C1)C2` [Compound 55, 6-((1S,3R)-2-(bicyclo[1.1.1]pentan-1-yl)-3-methyl-2,3,4,9-tetrahydro-1H-pyrido[3,4-b]indol-1-yl)-N—((S)-1-(3-fluoropropyl)pyrrolidin-3-yl)pyridin-3-amine] showed an IC50 (MCF7, 120 h) of at least 250 nM.

Work on `C[C@@H]1Cc2c([nH]c3ccccc23)[C@@H](c2ccc(N[C@@H]3CN(CCCF)C[C@H]3O)cc2)N1C12CC(C1)C2` (single isomer, unassigned) [Compound 80] yielded an IC50 (MCF7, 120 h) of at most 25 nM.

Work on `C#CCN1CC(Nc2ccc([C@@H]3c4[nH]c5ccccc5c4C[C@@H](C)N3C34CC(C3)C4)cc2)C1` [Compound 65, N-(4-((1R,3R)-2-(bicyclo[1.1.1]pentan-1-yl)-3-methyl-2,3,4,9-tetrahydro-1H-pyrido[3,4-b]indol-1-yl)phenyl)-1-(prop-2-yn-1-yl)azetidin-3-amine] yielded an IC50 (MCF7, 120 h) of at most 25 nM.

Compound `C[C@@H]1Cc2c([nH]c3ccccc23)[C@@H](c2ccc(O[C@@H]3CCN(CCCF)C3)cn2)N1C12CC(C1)C2` (single isomer, unassigned) [Compound 11] has an IC50 (MCF7, 120 h) of at least 250 nM.

Compound `C[C@@H]1Cc2c([nH]c3ccccc23)[C@@H](c2ccc(O[C@@H]3CCN(CCCF)C3)cc2)N1C12CC(C1)C2` (single isomer, unassigned) [Compound 7] has an IC50 (MCF7, 120 h) of 25 to 250 nM.

In the case of `C[C@@H]1Cc2c([nH]c3ccccc23)[C@@H](c2ccc(NCCN3CCC(CF)C3)nc2)N1C12CC(C1)C2` (stereo partly drawn) [Compound 29, 5-((1R,3R)-2-(bicyclo[1.1.1]pentan-1-yl)-3-methyl-2,3,4,9-tetrahydro-1H-pyrido[3,4-b]indol-1-yl)-N-(2-(3-(fluoromethyl)pyrrolidin-1-yl)ethyl)pyridin-2-amine], the IC50 (MCF7, 120 h) is reported as at least 250 nM.

`C[C@H]1Cc2c([nH]c3ccccc23)[C@H](c2ccc(NC3CN(CCCF)C3)cc2)N1C12CC(CF)(C1)C2` (single isomer, unassigned) [Compound 63] gave an IC50 (MCF7, 120 h) of at most 25 nM.

Work on `C[C@@H]1Cc2c([nH]c3ccccc23)[C@@H](c2ccc(OC3CN(CCO)C3)cc2)N1C12CC(C1)C2` [Compound 46, 2-(3-(4-((1R,3R)-2-(bicyclo[1.1.1]pentan-1-yl)-3-methyl-2,3,4,9-tetrahydro-1H-pyrido[3,4-b]indol-1-yl)phenoxy)azetidin-1-yl)ethan-1-ol] yielded an IC50 (MCF7, 120 h) of at least 250 nM.

For `C[C@@H]1Cc2c([nH]c3ccccc23)[C@@H](c2cnc(NC3CN(CCCF)C3)c(F)c2)N1C12CC(C1)C2` [Compound 41, 5-((1R,3R)-2-(bicyclo[1.1.1]pentan-1-yl)-3-methyl-2,3,4,9-tetrahydro-1H-pyrido[3,4-b]indol-1-yl)-3-fluoro-N-(1-(3-fluoropropyl)azetidin-3-yl)pyridin-2-amine], the IC50 (MCF7, 120 h) was at least 250 nM.
